Measurements reported in PubChem BioAssay (NCI).
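Assay format: 96-well plates, 48-hour exposure. At the GI50, growth is halved. Definition used: TGI = concentration required for complete inhibition of growth.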

Columns and labels:
Experiment in all cases: DTP human tumour cell line panel, 48 h
786-0 renal = test system: 786-0 renal
A498 renal = test system: A498 renal
A549 NSCLC = test system: A549 NSCLC
ACHN renal = test system: ACHN renal
BT-549 breast = test system: BT-549 breast
CAKI-1 renal = test system: CAKI-1 renal
CCRF-CEM leukemia = test system: CCRF-CEM leukemia
COLO 205 colon = test system: COLO 205 colon
DU-145 prostate = test system: DU-145 prostate
EKVX NSCLC = test system: EKVX NSCLC
HCC-2998 colon = test system: HCC-2998 colon
HCT-116 colon = test system: HCT-116 colon
HCT-15 colon = test system: HCT-15 colon
HL-60(TB) leukemia = test system: HL-60(TB) leukemia
HOP-62 NSCLC = test system: HOP-62 NSCLC
HOP-92 NSCLC = test system: HOP-92 NSCLC
HS 578T breast = test system: HS 578T breast
HT29 colon = test system: HT29 colon
IGROV1 ovarian = test system: IGROV1 ovarian
K-562 leukemia = test system: K-562 leukemia
KM12 colon = test system: KM12 colon
LOX IMVI melanoma = test system: LOX IMVI melanoma
M14 melanoma = test system: M14 melanoma
MALME-3M melanoma = test system: MALME-3M melanoma
MCF7 breast = test system: MCF7 breast
MDA-MB-231 breast = test system: MDA-MB-231 breast
MDA-MB-435 = test system: MDA-MB-435
MOLT-4 leukemia = test system: MOLT-4 leukemia
NCI-H226 lung = test system: NCI-H226 lung
NCI-H23 lung = test system: NCI-H23 lung
NCI-H460 lung = test system: NCI-H460 lung
NCI-H522 lung = test system: NCI-H522 lung
NCI/ADR-RES ovarian = test system: NCI/ADR-RES ovarian
OVCAR-3 ovarian = test system: OVCAR-3 ovarian
OVCAR-4 ovarian = test system: OVCAR-4 ovarian
OVCAR-5 ovarian = test system: OVCAR-5 ovarian
OVCAR-8 ovarian = test system: OVCAR-8 ovarian
PC-3 prostate = test system: PC-3 prostate
RPMI-8226 leukemia = test system: RPMI-8226 leukemia
RXF 393 renal = test system: RXF 393 renal
SF-268 CNS = test system: SF-268 CNS
SF-295 CNS = test system: SF-295 CNS
SF-539 CNS = test system: SF-539 CNS
SK-MEL-2 melanoma = test system: SK-MEL-2 melanoma
SK-MEL-28 melanoma = test system: SK-MEL-28 melanoma
SK-MEL-5 melanoma = test system: SK-MEL-5 melanoma
SK-OV-3 ovarian = test system: SK-OV-3 ovarian
SN12C renal = test system: SN12C renal
SNB-19 CNS = test system: SNB-19 CNS
SNB-75 CNS = test system: SNB-75 CNS
SR leukemia = test system: SR leukemia
SW-620 colon = test system: SW-620 colon
T-47D breast = test system: T-47D breast
TK-10 renal = test system: TK-10 renal
U251 CNS = test system: U251 CNS
UACC-257 melanoma = test system: UACC-257 melanoma
UACC-62 melanoma = test system: UACC-62 melanoma
UO-31 renal = test system: UO-31 renal

O=C(CCl)Nc1ccc2c(Nc3cc(O)ccc3Cl)ncnc2c1
GI50 (786-0 renal): 1.24 µM
TGI (786-0 renal): 4.56 µM
GI50 (A498 renal): 5.51 µM
TGI (A498 renal): 11.1 µM
GI50 (A549 NSCLC): 4.08 µM
TGI (A549 NSCLC): 8.26 µM
GI50 (ACHN renal): 2.87 µM
TGI (ACHN renal): 6.52 µM
GI50 (BT-549 breast): 2.02 µM
TGI (BT-549 breast): 5.81 µM
GI50 (CAKI-1 renal): 3.36 µM
TGI (CAKI-1 renal): 7.45 µM
GI50 (CCRF-CEM leukemia): 0.892 µM
TGI (CCRF-CEM leukemia): 3.02 µM
GI50 (COLO 205 colon): 4.03 µM
TGI (COLO 205 colon): 8.06 µM
GI50 (DU-145 prostate): 2.39 µM
TGI (DU-145 prostate): 5.36 µM
GI50 (EKVX NSCLC): 3.03 µM
TGI (EKVX NSCLC): 6.87 µM
GI50 (HCC-2998 colon): 4.9 µM
TGI (HCC-2998 colon): 9.81 µM
GI50 (HCT-116 colon): 0.93 µM
TGI (HCT-116 colon): 3.99 µM
GI50 (HCT-15 colon): 0.773 µM
TGI (HCT-15 colon): 3.32 µM
GI50 (HL-60(TB) leukemia): 1.15 µM
TGI (HL-60(TB) leukemia): 4.88 µM
GI50 (HOP-62 NSCLC): 3.27 µM
TGI (HOP-62 NSCLC): 7.17 µM
GI50 (HOP-92 NSCLC): 4.86 µM
TGI (HOP-92 NSCLC): 9.38 µM
GI50 (HS 578T breast): 3.27 µM
TGI (HS 578T breast): 15.2 µM
GI50 (HT29 colon): 1.93 µM
TGI (HT29 colon): 5.78 µM
GI50 (IGROV1 ovarian): 2.12 µM
TGI (IGROV1 ovarian): 6.32 µM
GI50 (K-562 leukemia): 0.929 µM
TGI (K-562 leukemia): 7.23 µM
GI50 (KM12 colon): 3.23 µM
TGI (KM12 colon): 7.11 µM
GI50 (LOX IMVI melanoma): 0.818 µM
TGI (LOX IMVI melanoma): 3.64 µM
GI50 (M14 melanoma): 3.3 µM
TGI (M14 melanoma): 7.26 µM
GI50 (MALME-3M melanoma): 3.9 µM
TGI (MALME-3M melanoma): 8.1 µM
GI50 (MCF7 breast): 1.07 µM
TGI (MCF7 breast): 5 µM
GI50 (MDA-MB-231 breast): 2.75 µM
TGI (MDA-MB-231 breast): 6.25 µM
GI50 (MDA-MB-435): 2.21 µM
TGI (MDA-MB-435): 5.75 µM
GI50 (MOLT-4 leukemia): 0.846 µM
TGI (MOLT-4 leukemia): 4.03 µM
GI50 (NCI-H226 lung): 5.86 µM
TGI (NCI-H226 lung): 12.3 µM
GI50 (NCI-H23 lung): 2.73 µM
TGI (NCI-H23 lung): 7.1 µM
GI50 (NCI-H460 lung): 2.33 µM
TGI (NCI-H460 lung): 6.4 µM
GI50 (NCI-H522 lung): 0.664 µM
TGI (NCI-H522 lung): 2.12 µM
GI50 (NCI/ADR-RES ovarian): 3.55 µM
TGI (NCI/ADR-RES ovarian): 9.31 µM
GI50 (OVCAR-3 ovarian): 1.71 µM
TGI (OVCAR-3 ovarian): 5.2 µM
GI50 (OVCAR-4 ovarian): 3.09 µM
TGI (OVCAR-4 ovarian): 7.44 µM
GI50 (OVCAR-5 ovarian): 3.4 µM
TGI (OVCAR-5 ovarian): 7.03 µM
GI50 (OVCAR-8 ovarian): 3.71 µM
TGI (OVCAR-8 ovarian): 10.1 µM
GI50 (PC-3 prostate): 3.02 µM
TGI (PC-3 prostate): 6.79 µM
GI50 (RPMI-8226 leukemia): 2.94 µM
TGI (RPMI-8226 leukemia): 7.66 µM
GI50 (RXF 393 renal): 3.37 µM
TGI (RXF 393 renal): 7.13 µM
GI50 (SF-268 CNS): 2.65 µM
TGI (SF-268 CNS): 6.63 µM
GI50 (SF-295 CNS): 2.58 µM
TGI (SF-295 CNS): 5.96 µM
GI50 (SF-539 CNS): 3.38 µM
TGI (SF-539 CNS): 6.84 µM
GI50 (SK-MEL-2 melanoma): 3.65 µM
TGI (SK-MEL-2 melanoma): 8.19 µM
GI50 (SK-MEL-28 melanoma): 3.66 µM
TGI (SK-MEL-28 melanoma): 7.97 µM
GI50 (SK-MEL-5 melanoma): 3.22 µM
TGI (SK-MEL-5 melanoma): 6.76 µM
GI50 (SK-OV-3 ovarian): 4.24 µM
TGI (SK-OV-3 ovarian): 7.94 µM
GI50 (SN12C renal): 1.21 µM
TGI (SN12C renal): 4.06 µM
GI50 (SNB-19 CNS): 2.14 µM
TGI (SNB-19 CNS): 5.22 µM
GI50 (SNB-75 CNS): 3.28 µM
TGI (SNB-75 CNS): 6.56 µM
GI50 (SR leukemia): 0.758 µM
TGI (SR leukemia): 3.72 µM
GI50 (SW-620 colon): 1.14 µM
TGI (SW-620 colon): 3.79 µM
GI50 (T-47D breast): 3.51 µM
TGI (T-47D breast): 7.72 µM
GI50 (TK-10 renal): 3.87 µM
TGI (TK-10 renal): 8.23 µM
GI50 (U251 CNS): 0.828 µM
TGI (U251 CNS): 2.97 µM
GI50 (UACC-257 melanoma): 4.02 µM
TGI (UACC-257 melanoma): 8.44 µM
GI50 (UACC-62 melanoma): 2.38 µM
TGI (UACC-62 melanoma): 5.98 µM
GI50 (UO-31 renal): 2.69 µM
TGI (UO-31 renal): 6 µM
